Assay results reported in patent US20200037609A1, “HERBICIDAL COMPOSITIONS AND METHODS OF USE THEREOF” (The Regents of the University of California, priority 2017, published 2020).
Entries after “also recorded” stand apart in the source; their conditions may differ.

Assays:
[1] = system: Saccharomyces cerevisiae; assay: Yeast growth inhibition assay on plates; assay type: cell-based; conditions: 250 μM aspterric acid
Procedure: Saccharomyces cerevisiae was plated onto dropout media that lacked isoleucine, leucine, and valine, either with or without 250 μM aspterric acid. Saccharomyces cerevisiae was also plated onto rich media that contained all amino acids along with 250 μM aspterric acid. Plates were incubated at 30° C.

[2] = system: Arabidopsis thaliana; assay: Agar-based plant growth inhibition assay on MS media; assay type: in vivo; conditions: for growth of A. thaliana on MS media: 50 μM aspterric acid
Procedure: Agar-based growth inhibition assays were carried out on MS media (4.33 g Murashige and Skoog basal medium, 20 g sucrose, and 10 g Agar per liter MS media, pH was adjusted to 5.7 using KOH). Aspterric acid at a final concentration of 50 μM was included in the experimental media. DMSO at final concentration of 1% was used to increase the solubility of aspterric acid. The control MS media contained the same amount of DMSO, but no aspterric acid. Sterilized Arabidopsis thaliana seeds were plated on MS media. After 2 days of cold treatment at 4° C. in the dark, plates were transferred to standard growing condition (16 hour light and 8 hour dark at 22° C.) to geminate. After germination on day 4, the seedlings were transferred to MS media containing 50 μM aspterric acid. MS media containing only DMSO was used as a control. Images were taken at day 8 and day 12 to assay growth inhibition activity of aspterric acid on Arabidopsis thaliana.
(§1) Growth inhibition assay of plants on plates or in the tubes. MS (2.16 g/L Murashige and Skoog basal medium, 8 g/L sucrose, 8 g/L agar) media was used to test the growth inhibition of AA on A. thaliana, Solanum lycopersicum, and Zea mays. A. thaliana, S. lycopersicum, G. max and Z. mays were grown under long day condition (16/8 h light/dark) using cool-white fluorescence bulbs as the light resource at 23° C. AA was dissolved in ethanol and added to the media before inoculating strains or growing plants. The media of control treatment contains the same amount of ethanol, but without AA.

[3] = system: green bean seedlings; assay: as above; assay type: in vivo; conditions: 50 μM aspterric acid, day 3 and day 7
Procedure: Sterile green bean seedlings were plated on MS media containing 50 μM aspterric acid and 1% DMSO (to increase the solubility of aspterric acid) on day 0. MS media containing only 1% DMSO was used as a control. Growth was assessed on day 3 and day 7.

[4] = system: tomato seedlings (Solanum lycopersicum); assay: as above; assay type: in vivo; conditions: 50 μM aspterric acid
Procedure: Sterile tomato seedlings were plated on MS media containing 50 μM aspterric acid and 1% DMSO (to increase the solubility of aspterric acid) or on MS media containing 50 μM glyphosate on day 0. MS media containing only 1% DMSO was used as a control. Growth was assessed on day 3 and day 7.
as §1

[5] = system: Zea mays; assay: Plant growth inhibition assay on MS media; assay type: in vivo; conditions: 50 μM AA
Procedure: as §1

[6] = system: glufosinate resistant A. thaliana; assay: Plant growth inhibition assay by spraying (250 μM AA in Finale + ethanol); assay type: in vivo, Arabidopsis thaliana; conditions: glufosinate resistant plants without astD, listed as AA
Procedure: (§2) Plant growth inhibition assay by spraying. AA was firstly dissolved in ethanol and then added to solvent (0.06 g/L Finale® Bayer Inc.+20 g/L EtOH). The control plants were treated with solvent containing ethanol only. A. thaliana that are resistant to glufosinate (containing the bar gene) were grown under long day conditions (16/8 h light/dark) using cool-white fluorescence bulbs as the light resource at 23° C. Spraying treatments began when the seeds germinated, and was repeated once every two days with approximately 0.4 mL AA solution per time per pot.

[7] = system: astD transgene-expressing A. thaliana; assay: AA resistance of astD transgenic plants (media and spray); assay type: in vivo, Arabidopsis thaliana
Procedure: as §1, §2
The coding sequence of AstD was codon optimized for A. thaliana. A chloroplast localization signal (CLS) of 35-amino acid residues derived from the N-terminal of A. thaliana DHAD (SEQ ID NO: 19) was fused to N-terminus of the codon optimized AstD. […]

[8] = system: pollen development in Arabidopsis thaliana; assay: Pollen development in AA treated plants; assay type: in vivo; conditions: treated before flowering; listed as AA

## CC(C)=C1CC[C@]23CO[C@H](C2)[C@@](O)(C(=O)O)CC[C@@H]13 [aspterric acid]
[1]
  growth of S. cerevisiae on media lacking isoleucine, leucine and valine: inhibited the growth
[1]; all amino acids present
  growth of S. cerevisiae on rich media: grew normally
[2]
  growth of A. thaliana on MS media: significant vegetative growth inhibition
[2]; listed as AA
  growth of A. thaliana on MS media: potently inhibit
[2]; 100 μM AA
  growth of wild-type A. thaliana on media: strongly inhibited
[3]
  growth of green bean seedlings on MS media: significant vegetative growth inhibition
[4]
  growth of tomato (Solanum lycopersicum) on MS media: significant vegetative growth inhibition
[4]; listed as AA
  growth of tomato (Solanum lycopersicum) on MS media: effective inhibitor of root development and plant growth
[5]
  root development and plant growth of Zea mays on MS media: effective inhibitor of root development and plant growth
[6]
  plant growth after spray of AA in Finale: severely inhibited plant growth; also recorded: strong growth inhibitory phenotype
[7]; 100 μM AA
  growth of astD transgenic plants on media: relatively unaffected
[7]; 250 μM AA + glufosinate ammonium
  growth of T2 astD transgenic plants after spray: no observable growth defects
[8]
  pollen formation in AA treated A. thaliana: failed to form normal pollen; also recorded: depleted of healthy and mature pollen
